Source: PubChem BioAssay AID1963451 (Molecular Pharmacology Branch, DTP, NCI, 2024)

Test system: 521955-158-R6-J3-PDC complex spheroid growth, % test/control
Assay: Anticancer human tumor 521955-158-R6-J3-PDC patient-derived pancreatic carcinoma cell line growth inhibition [Asc]
Settings: for IC50: curve of first compound; for viability, T/C: stronger effect = lower value; active = viability on the fitted dose curve at most 10% of control; inactive = the rest
Protocol: Multicellular complex tumor spheroid response to apoptosis pathway targeting inhibitors Alrizomadlin, Pelcitoclax, and Dasminapant in combination with a variety of drugs and investigational agents in selected tumor cell lines
The MDM2 inhibitor alrizomadlin, the Bcl-2/Bcl-xL inhibitor pelcitoclax, and the IAPs inhibitor dasminapant were evaluated both individually and in combination with standard of care and investigational anticancer small molecules within a complex spheroid model of solid tumors. . Complex spheroids include a stromal component modeled by human endothelial cells (HUVEC) and fibroblasts modeled by human mesenchymal stem cells (MSCs). The concentration ranges selected for each drug and investigational agent were based upon clinically achievable concentrations if the clinical Cmax of the agent was known.
Compounds. The drugs and investigational agents: alrizomadlin (APG-115; NSC831270), pelcitoclax (APG-1252; NSC835773), dasminapant (APG-1387;NSC834197), TAK-243 (NSC785004), copanlisib (NSC809693), olaparib (NSC753686), talazoparib (NSC767125), cobimetinib (NSC 768068), eltanexor (KPT-8602, NSC 794443), abemaciclib (NSC 768073), sotorasib (NSC818433), adagrasib (NSC 831453), MRTX-1133 (NSC 836407), Iadademestat (ORY1001, NSC 806812), and RMC-4630 (NSC839698), were obtained from the NCI Developmental Therapeutics Program Chemical Repository. The FDA-approved anticancer drug set is available from the Developmental Therapeutics Program at https://dtp.cancer.gov/organization/dscb/obtaining/available plates.htm. […] The stock solutions were prepared in dimethyl sulfoxide (DMSO, Sigma-Aldrich, St. Louis, MO, cat. D2650) at 800-fold the tested concentration and stored at -70 degrees C prior to their use. All drugs and investigational agents were tested over a range starting from a high concentration at or near the clinical Cmax and decreasing in half-log increments. If the clinical Cmax for an agent had not been determined, the highest concentration tested was 10 microM.
The patient-derived cancer (PDC) cell lines include five colon adenocarcinomas: 186277-243-T-J2-PDC, 616215-338-R-J1-PDC, 439559-082-T-J2-PDC, 463943-066-T-J2-PDC, and 519858-162-T-J1-PDC; three pancreatic carcinomas: 323965-272-R-J2-PDC, 521955-158-R6-J3-PDC, and 521955-158-R2-J5-PDC; two uterine sarcomas: 327498-152-R-J2-PDC and 993429-296-R-J1-PDC; two rhabdomyosarcomas: 755483-174-R-J1-PDC and 772245-204-R-J1-PDC; two soft tissue sarcomas: 126254-015-R-J1-PDC and 494315-158-R-J1-PDC; two malignant fibrous histiocytomas: 317291-083-R-J1-PDC and 596521-263-R-J1-PDC; two breast carcinomas: 171881-019-R-J1-PDC and 885512-296-R-J2-PDC; and one ovarian carcinoma: 6556581-035-R-J-PDC were obtained from the NCI PDMR, (https://pdmr.cancer.gov). The established cell lines HSSY-2 synovial sarcoma (RRID:CVCL 8719), SYO-1 synovial sarcoma (RRID:CVCL_7146), MPNST malignant peripheral neural sheath tumor were obtained from the Sloan Kettering Institute. The following established cell lines were purchased from the American Type Culture Collection (ATCC, Manassas, VA), Sor the received from the NCI repository:, PANC-1 pancreatic carcinoma (CRL-1469, RRID:CVCL_0480), OVCAR-5 ovarian carcinoma (RRID:CVCL_1628), OVCAR-8 ovarian carcinoma (RRID:CVCL_1629), , MCF-7 breast carcinoma (CRL-12584, RRID:CVCL_0031), MDA-MB-231 breast carcinoma (CRL-12532, RRID:CVCL_0062), NCI-H1876 small cell lung carcinoma (CRL-5902, RRID:CVCL_1503), NCI-H510A small cell lung carcinoma (HTB-184, RRID:CVCL_1565), NCI-H1417 (CRL-5869, RRID:CVCL_1469), and NCI-H196 small cell lung carcinoma (CRL-5823, RRID:CVCL_1509). Dr. Peter Houghton (Greehey Children's Cancer Research Institute, University of Texas Health Science Center, San Antonio, TX) provided Rh-18 rhabdomyosarcoma (RRID:CVCL_1659). Pooled donor human umbilical vein endothelial cells (HUVEC, Lonza, cat. CC-2519) and human mesenchymal stem cells (hMSC, Lonza, cat. PT-2501) were purchased from Lonza (Walkersville, MD).
Cell Culture. […]
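Note: spheroids exposed to compounds for 7 days.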
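Throughout, for viability, T/C: 100% = DMSO vehicle control wells.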

NC1CCC(NC2CC2c2ccccc2)CC1 (centres undefined) + CNC(C)C(=O)NC1CN(S(=O)(=O)c2cccc(S(=O)(=O)N3CCC4CCC(C(=O)NC(c5ccccc5)c5ccccc5)N4C(=O)C(NC(=O)C(C)NC)C3)c2)CCC2CCC(C(=O)NC(c3ccccc3)c3ccccc3)N2C1=O
inactive: viability, T/C (second compound 0.00316 µM, first compound 0.000316 µM) 86% | viability, T/C (second compound 0.00316 µM, first compound 0.001 µM) 98.8% | viability, T/C (second compound 0.00316 µM, first compound 0.00316 µM) 95.5% | viability, T/C (second compound 0.00316 µM, first compound 0.01 µM) 92.6% | viability, T/C (second compound 0.00316 µM, first compound 0.0316 µM) 91.1% | viability, T/C (second compound 0.00316 µM, first compound 0.1 µM) 82.1% | viability, T/C (second compound 0.01 µM, first compound 0.000316 µM) 94% | viability, T/C (second compound 0.01 µM, first compound 0.001 µM) 85.2% | viability, T/C (second compound 0.01 µM, first compound 0.00316 µM) 77.6% | viability, T/C (second compound 0.01 µM, first compound 0.01 µM) 93% | viability, T/C (second compound 0.01 µM, first compound 0.0316 µM) 91.4% | viability, T/C (second compound 0.01 µM, first compound 0.1 µM) 82.3% | viability, T/C (second compound 0.0316 µM, first compound 0.000316 µM) 98.1% | viability, T/C (second compound 0.0316 µM, first compound 0.001 µM) 93.4% | viability, T/C (second compound 0.0316 µM, first compound 0.00316 µM) 80% | viability, T/C (second compound 0.0316 µM, first compound 0.01 µM) 93.1% | viability, T/C (second compound 0.0316 µM, first compound 0.0316 µM) 87.8% | viability, T/C (second compound 0.0316 µM, first compound 0.1 µM) 88.8% | viability, T/C (second compound 0.1 µM, first compound 0.000316 µM) 91.4% | viability, T/C (second compound 0.1 µM, first compound 0.001 µM) 80.8% | viability, T/C (second compound 0.1 µM, first compound 0.00316 µM) 68.5% | viability, T/C (second compound 0.1 µM, first compound 0.01 µM) 86.1% | viability, T/C (second compound 0.1 µM, first compound 0.0316 µM) 89.6% | viability, T/C (second compound 0.1 µM, first compound 0.1 µM) 66.3% | viability, T/C (second compound 0.316 µM, first compound 0.000316 µM) 83.8% | viability, T/C (second compound 0.316 µM, first compound 0.001 µM) 89.7% | viability, T/C (second compound 0.316 µM, first compound 0.00316 µM) 84.4% | viability, T/C (second compound 0.316 µM, first compound 0.01 µM) 89% | viability, T/C (second compound 0.316 µM, first compound 0.0316 µM) 71% | viability, T/C (second compound 0.316 µM, first compound 0.1 µM) 79.7% | viability, T/C (second compound 1 µM, first compound 0.000316 µM) 90.1% | viability, T/C (second compound 1 µM, first compound 0.001 µM) 77.8% | viability, T/C (second compound 1 µM, first compound 0.00316 µM) 76.9% | viability, T/C (second compound 1 µM, first compound 0.01 µM) 96.5% | viability, T/C (second compound 1 µM, first compound 0.0316 µM) 92.2% | viability, T/C (second compound 1 µM, first compound 0.1 µM) 83.8%
> 0.1 µM: IC50 (second compound 0.00316 µM) | IC50 (second compound 0.01 µM) | IC50 (second compound 0.0316 µM) | IC50 (second compound 0.1 µM) | IC50 (second compound 0.316 µM) | IC50 (second compound 1 µM)

Cc1nc(N2CCC3(CC2)COC(C)C3N)c(CO)nc1Sc1ccnc(N)c1Cl (centres undefined) + CCN1C(C(=O)NC23CCC(C(=O)O)(CC2)CC3)C(c2cccc(Cl)c2F)C2(C(=O)Nc3cc(Cl)ccc32)C12CCCCC2
inactive: viability, T/C (second compound 0.00949 µM, first compound 0.00949 µM) 128% | viability, T/C (second compound 0.00949 µM, first compound 0.03 µM) 107% | viability, T/C (second compound 0.00949 µM, first compound 0.0949 µM) 92.8% | viability, T/C (second compound 0.00949 µM, first compound 0.3 µM) 93.8% | viability, T/C (second compound 0.00949 µM, first compound 0.949 µM) 77.8% | viability, T/C (second compound 0.00949 µM, first compound 3 µM) 74.5% | viability, T/C (second compound 0.03 µM, first compound 0.00949 µM) 109% | viability, T/C (second compound 0.03 µM, first compound 0.03 µM) 104% | viability, T/C (second compound 0.03 µM, first compound 0.0949 µM) 91% | viability, T/C (second compound 0.03 µM, first compound 0.3 µM) 106% | viability, T/C (second compound 0.03 µM, first compound 0.949 µM) 93.8% | viability, T/C (second compound 0.03 µM, first compound 3 µM) 85.8% | viability, T/C (second compound 0.0949 µM, first compound 0.00949 µM) 115% | viability, T/C (second compound 0.0949 µM, first compound 0.03 µM) 113% | viability, T/C (second compound 0.0949 µM, first compound 0.0949 µM) 106% | viability, T/C (second compound 0.0949 µM, first compound 0.3 µM) 82.6% | viability, T/C (second compound 0.0949 µM, first compound 0.949 µM) 82.2% | viability, T/C (second compound 0.0949 µM, first compound 3 µM) 79.8% | viability, T/C (second compound 0.3 µM, first compound 0.00949 µM) 112% | viability, T/C (second compound 0.3 µM, first compound 0.03 µM) 82.6% | viability, T/C (second compound 0.3 µM, first compound 0.0949 µM) 113% | viability, T/C (second compound 0.3 µM, first compound 0.3 µM) 95% | viability, T/C (second compound 0.3 µM, first compound 0.949 µM) 83% | viability, T/C (second compound 0.3 µM, first compound 3 µM) 92.6% | viability, T/C (second compound 0.949 µM, first compound 0.00949 µM) 133% | viability, T/C (second compound 0.949 µM, first compound 0.03 µM) 104% | viability, T/C (second compound 0.949 µM, first compound 0.0949 µM) 93.5% | viability, T/C (second compound 0.949 µM, first compound 0.3 µM) 92.4% | viability, T/C (second compound 0.949 µM, first compound 0.949 µM) 82.2% | viability, T/C (second compound 0.949 µM, first compound 3 µM) 83.1% | viability, T/C (second compound 3 µM, first compound 0.00949 µM) 114% | viability, T/C (second compound 3 µM, first compound 0.03 µM) 90.2% | viability, T/C (second compound 3 µM, first compound 0.0949 µM) 104% | viability, T/C (second compound 3 µM, first compound 0.3 µM) 84.1% | viability, T/C (second compound 3 µM, first compound 0.949 µM) 87.5% | viability, T/C (second compound 3 µM, first compound 3 µM) 72.3%
> 3 µM: IC50 (second compound 0.00949 µM) | IC50 (second compound 0.03 µM) | IC50 (second compound 0.0949 µM) | IC50 (second compound 0.3 µM) | IC50 (second compound 0.949 µM) | IC50 (second compound 3 µM)
